Source: publication PMC7038993 (Nucleic Acids Research, 2020)

Each molecule was assayed against Murine eukaryotic translation initiation factor 4E (eIF4E, residues 28–217); meIF4E (Mus musculus, UniProt P63073) (assay: time-synchronized fluorescence quenching titration).
Assay type: binding

Chain of Murine eukaryotic translation initiation factor 4E (eIF4E, residues 28–217); meIF4E (P63073 28-217): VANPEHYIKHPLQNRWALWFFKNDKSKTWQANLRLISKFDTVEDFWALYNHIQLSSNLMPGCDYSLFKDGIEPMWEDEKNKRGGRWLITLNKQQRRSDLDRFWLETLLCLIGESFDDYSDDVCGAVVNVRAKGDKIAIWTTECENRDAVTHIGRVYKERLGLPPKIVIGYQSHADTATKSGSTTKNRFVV

| Kd [nM] | Molecule |
| --- | --- |
| 22.7 ± 0.9 | C[n+]1cn([C@@H]2O[C@H](COP(=O)(O)OP(=O)(O)OP(=O)(O)OC[C@H]3O[C@@H](n4cnc5c(=O)[nH]c(N)nc54)[C@H](O)[C@@H]3OP(=O)(O)OC[C@H]3O[C@@H](n4cnc5c(=O)[nH]c(N)nc54)[C@H](O)[C@@H]3O)[C@@H](O)[C@H]2O)c2nc(N)[nH]c(=O)c21 [m^7GpppGpG] |
| 25.1 ± 0.6 | C[n+]1cn([C@@H]2O[C@H](COP(=O)(O)OP(=O)(O)OP(=O)(O)OC[C@H]3O[C@@H](n4ccc(N)nc4=O)[C@H](O)[C@@H]3OP(=O)(O)OC[C@H]3O[C@@H](n4cnc5c(=O)[nH]c(N)nc54)[C@H](O)[C@@H]3O)[C@@H](O)[C@H]2O)c2nc(N)[nH]c(=O)c21 [m^7GpppCpG] |
| 35.2 ± 0.8 | CNc1ncnc2c1ncn2[C@@H]1O[C@H](COP(=O)(O)OP(=O)(O)OP(=O)(O)OC[C@H]2O[C@@H](n3c[n+](C)c4c(=O)[nH]c(N)nc43)[C@H](O)[C@@H]2O)[C@@H](OP(=O)(O)OC[C@H]2O[C@@H](n3cnc4c(=O)[nH]c(N)nc43)[C@H](O)[C@@H]2O)[C@H]1O [m^7Gppp^m6ApG] |
| 32.8 ± 0.8 | CNc1ncnc2c1ncn2[C@@H]1O[C@H](COP(=O)(O)OP(=O)(O)OP(=O)(O)OC[C@H]2O[C@@H](n3c[n+](C)c4c(=O)[nH]c(N)nc43)[C@H](O)[C@@H]2O)[C@@H](OP(=O)(O)OC[C@H]2O[C@@H](n3cnc4c(=O)[nH]c(N)nc43)[C@H](O)[C@@H]2O)[C@H]1OC [m^7Gppp^m6AmpG] |

| Molecule | Kd [nM] |
| --- | --- |
| C[n+]1cn([C@@H]2O[C@H](COP(=O)(O)OP(=O)(O)OP(=O)(O)OC[C@H]3O[C@@H](n4cnc5c(N)ncnc54)[C@H](O)[C@@H]3OP(=O)(O)OC[C@H]3O[C@@H](n4cnc5c(=O)[nH]c(N)nc54)[C@H](O)[C@@H]3O)[C@@H](O)[C@H]2O)c2nc(N)[nH]c(=O)c21 [m^7GpppApG] | 26.6 ± 0.9 |
| C[n+]1cn([C@@H]2O[C@H](COP(=O)(O)OP(=O)(O)OP(=O)(O)OC[C@H]3O[C@@H](n4cnc5c(N)ncnc54)[C@H](O)[C@@H]3O)[C@@H](O)[C@H]2O)c2nc(N)[nH]c(=O)c21 [m^7GpppA] | 178 ± 4.3 |

The molecules below were run against eIF4E (28-217) (Mus musculus (murine), UniProt P63073 28-217) (assay: fluorescence quenching titration).
Chain of eIF4E (28-217) (P63073 28-217): as above

| Molecule | Kd [nM] |
| --- | --- |
| GCG (XNA, m7G1; 5'-5' triphosphate between G1 and C2; 2'-O-methyl C2) [m7GpppCmpG] | 29.9 ± 0.7 |
| GAG (XNA, m7G1; 5'-5' triphosphate between G1 and A2; 2'-O-methyl A2) [m7GpppAmpG] | 45.6 ± 1.5 |
| GGG (XNA, m7G1; 5'-5' triphosphate between G1 and G2; 2'-O-methyl G2) [m7GpppGmpG] | 22.8 ± 0.6 |
